Source: US20140134136A1, “COMPOSITIONS AND METHODS FOR AUDITORY THERAPY” (MASSACHUSETTS EYE AND EAR INFIRMARY, priority 2012, published 2014)
Entries after “also recorded” stand apart in the source; their conditions may differ.

Tests used:
[1] = tested on: alpha and beta isoforms of the estrogen receptor; conditions: cited from earlier work
[2] = tested on: Atoh1 5′ enhancer/promoter region; assay: Luciferase assay of Atoh1 enhancer/promoter binding; type: cell-based; conditions: HEK cells stably transfected with Atoh1enhancer-luciferase and transiently with Atoh1-ER-DsRed; 72 hrs, increasing doses
Description: The stably transfected HEK cells were transiently transfected with either the cmv.Atoh1-ER-DsRed construct or a cmv.DsRed-ER control construct. […] All cells were also co-transfected with Renilla transfection controls.
The Atoh1 5′ enhancer/promoter region (Helms, Abney et al. 2000) was cloned into the MCS of the pGL3-Promoter Luciferase Reporter Vector (Promega), and was stably expressed on a HEK cell line using selection to […]. These cells were grown until 80% confluent on 6-well plates, and then transiently transfected with either the cmv.Atoh1 control vector, the cmv.Atoh1-ER-DsRed construct, or a cmv.DsRed-ER negative control construct using 3:1 target DNA to Fugene 6 Transfection Reagent. All cells were also co-transfected with Renilla transfection controls. […] Firefly luciferase activity was measured in a manual TD-20/20 Luminometer (Turner Designs).

organs of Corti = assay: Organ of Corti explants electroporated with the construct; type: cell-based, mice; conditions: 1 μM tamoxifen
Text: The construct was electroporated into neonatal organs of Corti isolated from transgenic mouse pups that express GFP under control of the 5′ Atoh1 enhancer/promoter.

[3] = tested on: Atoh1-ER-DsRed fusion protein; assay: Nuclear translocalization assay (DsRed fluorescence of isolated nuclei); type: cell-based; conditions: for localization of Atoh1-ER-DsRed to the nucleus: HEK cells, graded doses; for time to complete cytoplasmic localization of the fusion protein after removal from the culture media: removal of 4OHT/tamoxifen from culture media; for DsRed fluorescence in the nuclear fraction: HEK cells transfected with CMV-Atoh1-ER-DsRed, p<0.05
Description: Constructs were generated to express inducible Atoh1-ER fusion proteins (FIG. 1).
HEK cells were cultured until 50% confluent in 6-well culture dishes (type) then subjected to transfection using 3:1 target DNA to Fugene 6 Transfection Reagent (ROCHE). […] Cells were then processed for cytosolic and nuclear fractionation (BioVision). The isolated nuclear fraction collected from each of 5 sample wells per condition was mounted to a coverslip and average pixel density from 5 regions of interest (206.5×165.2 pixel at 20× magnification) was measured with a Cy3 ([…]) filter on a Zeiss epifluorescent microscope using MetaMorph software.

myosin 7a = assay: Myosin 7a immunolabeling in transfected HEI OC1 cells; type: cell-based
Description: To test this, the expression of myosin 7a, which is a downstream target of Atoh1 signaling, was measured in HEI OC1 cells transfected with the Atoh1-ER-DsRed construct.

Atoh1 mRNA = Atoh1 mRNA expression by RT-PCR and qPCR; type: cell-based; conditions: HEK cells transiently transfected with Atoh1-ER-DsRed; different doses
Description: Transiently transfected HEK cells were incubated with different doses of 4OHT.
Next, total RNA was extracted from the cells by adding 1 ml Trizol reagent (Invitrogen) to each well for 5 min, cells were scraped into a 1.5 ml tube (1 tube/well), incubated with […] chloroform (in hood) for 2 min centrifuged for 20 min at 12,000 g at 4° C., supernatant was collected in a new 1.5 ml tube, incubated with 1:1 equivalent volume of 2-propanol equal volume to supernatant, and centrifuged through the RNeasy mini kit columns at 8000 g for 15 sec. RNA was eluted from the column by adding […] RW1, centrifuging the column at 8000 g 15 s, adding […] washes of RPE2 and re-centrifuging at 8000 g 15 s, adding one spin to dry membrane (10,000 g, 1 min), and eluting the RNA by adding […] RNAse free water into new 1.5 ml tube and centrifuging a final time at 8000 g for 15 s. […]
For quantitative PCR (qPCR) analysis, 300 μL of qPCR Master Mix (Invitrogen) was added to a PCR tube with 300 μL dH2O, which was then divided into 5 tubes (120 μL each). […] Quantitative PCR was performed and the amount of RNA was determined Delta delta Ct measurements were calculated for each treatment group, and then were normalized to fold change from groups incubated in the absence of tamoxifen. […]

Atoh1 promoter/enhancer = assay: Comparison of constructs (Atoh1 promoter/enhancer binding, mRNA transcription, protein translation); type: cell-based
Text: FIG. 1A-FIG. 1E are schematics depicting constructs used to generate an inducible Atoh1 fusion protein. FIG. 1A depicts the construct termed Flag-Atoh1-ER-DsRed. In order to measure the translocation of the fusion protein between the cytoplasm and […], a construct was engineered to include the DsRed transgene. To aid in the detection of Atoh1 (Atonal homolog 1), several experimental constructs were engineered to include one or two consecutive flag-tagged sequences (Vallier, Mancip et al. 2001). To obtain the tamoxifen sensitive Atoh1 construct, PCR cloning primers were designed so that 1) an EcoRI site was placed on the 5′ end and a Kozac sequence (CACC) was placed upstream of the Atoh1 start codon; 2) the Atoh1 stop codon (TAG) was deleted; 3) the flag tagged Atoh1 sequence was linked to an Estrogen Receptor (ER) sequence by the sequence […] (SEQ ID NO: 1) encoding a polypeptide linker; 4) the ER stop codon (TAG) was deleted; 5) the ER sequence was linked to a DsRed sequence by the sequence […] (SEQ ID NO: 2) encoding a polypeptide linker; and 6) a Not I site was included on the 3′ end. The linker sequences were designed to translate into multiple proline sequences, which provide an increased degree of freedom for the fusion protein subunits. […]

Atoh1 protein = assay: Western blot analysis of Atoh1 protein; type: cell-based; conditions: transiently transfected HEK cells; different doses for 72 hr
Text: Whole cell protein was collected and processed for Western blot analysis. Positive control samples were transfected with a flag-tagged Atoh1 construct under control of a cmv promoter (flagAtoh1) and negative control samples were transfected with the DsRedER construct.
Control samples were similarly transfected with either DsRed-ER (negative control) or a positive control vector (cmv.flagAtoh1). Cells were lysed, the whole cell protein was collected and processed for Western blot analysis using either anti-Atoh1polyclonal antibody (Developmental Studies Hybridoma Bank) or a polyclonal anti-b-actin antibody (Sigma).

[4] = tested on: Atoh1-ER-DsRed fusion protein; assay: Nuclear localization in electroporated cochlear spheres; type: cell-based, mice
Text: (DAPI=blue; DsRed fluorescence=red). […] Yellow box highlights optimal conditions (+=nuclear localization in […] of cells; −/+≈50% nuclear localization; −=>0.10% nuclear localization.
Cochlear derived progenitor cells were generated and floating aggregates (cochlear spheres) propagated as previously described (Oshima et al., Journal of the Association for Research in Otolaryngology, 2007. 8(1): 18-31) with the following modifications. Cochleas were isolated from litters of P0-P3 ROSA26-GFP mice, the organs of Corti were dissected, pooled, trypsinized, triturated, and centrifuged. The pellet was re-suspended in SFM, filtered through a […] cell strainer, and cultured for 5 days in this same media supplemented with growth factors (10 ng/ml of FGF, IGF, EGF, Heparin sulfate). Floating aggregates were collected, centrifuged, triturated using a 100 μl pipette, re-suspended in 300 μl Optimem, and electroporated (8 pulses; 25 V; duration, 50 ms; interval, 100 ms with 2 mg/ml DNA in water, and incubated in 3:1 Fugene 6 overnight) using 50 μg of plasmid DNA. […] Finally, spheres from each of these groups were centrifuged, adhered to glass coverslips by incubation for 2-4 hours at 37° C. on glass coverslips coated with 1:1 poly-lysine/polyornithine, fixed in 4% paraformaldehyde for 20 minutes, washed three times in PBS, and stored at 4° C. for later analysis.

## O=c1c(O)c(-c2ccc(O)c(O)c2)oc2cc(O)cc(O)c12 [Quercetin]
[1]
  preference of binding to estrogen receptor isoforms: selectively binds to the estrogen receptor beta (ERβ)

## CC/C(=C(\c1ccccc1)c1ccc(OCCN(C)C)cc1)c1ccccc1 [tamoxifen]
[2]
  binding to / activation of the enhancer/promoter region of the Atoh1 gene: dose-dependent increase in binding
Organs of Corti
  hair cells in electroporated organs of Corti: supernumerary hair cells
[3]; 1 μM
  DsRed fluorescence against increasing Tamoxifen concentration: increased fluorescence compared to higher (100 μM) and lower doses (1 nM)
[3]
  localization of Atoh1-ER-DsRed to the nucleus: dose-dependent localization
  time to complete cytoplasmic localization of the fusion protein after removal from the culture media: ≤ 2 weeks
[3]; for 2-7 days, HEK cells (FIG. 2)
  minimum effective dose: 1 nM
Myosin 7a; OC1 cells transfected with Atoh1-ER-DsRed, 3 days in differentiating conditions (39° C.)
  myosin 7a positive cells within the spheres: significant increase
Atoh1 mRNA
  Atoh1 mRNA expression: increased the expression of Atoh1 in a dose-dependent manner

## O=C(c1ccc(OCCN2CCCCC2)cc1)c1c(-c2ccc(O)cc2)sc2cc(O)ccc12 [raloxifene]
[1]
  preference of binding to estrogen receptor isoforms: bind preferentially to the alpha receptor

## Flag-Atoh1-ER: construct encoding a flag-tagged Atoh1-ER fusion protein without DsRed (SEQ ID NO: 16)
Atoh1 promoter/enhancer
  Atoh1 promoter/enhancer binding, Atoh1 mRNA transcription and Atoh1 protein translation compared with the flag-Atoh1-ER-DsRed construct: on average higher than, but not significantly different from

## C[C@]12CC[C@@H]3c4ccc(O)cc4CC[C@H]3[C@@H]1CC[C@@H]2O [17-beta-estradiol]
[1]
  preference of binding to estrogen receptor isoforms: binds equally well to both receptors

## CC/C(=C(\c1ccc(O)cc1)c1ccc(OCCN(C)C)cc1)c1ccccc1 [4OHT]
[2]
  binding to / activation of the enhancer/promoter region of the Atoh1 gene: dose-dependent increase; also recorded: induced activation of the Atoh1 enhancer region
Atoh1 protein
  Atoh1 protein levels: increased the concentration of cytosolic Atoh1 protein in a dose-dependent manner; also recorded: increase in Atoh1 protein levels
[4]; cochlear spheres from ROSA26-GFP mice, 1 nM, after 48 hrs
  nuclear localization of the fusion protein: punctate nuclear localization
[4]; for 2-7 days (FIG. 3)
  minimum effective dose: 1 nM
[3]; 1 nM 4OHT for 72 hrs
  DsRed fluorescence in the nuclear fraction: 848.0+/−29.33 au
[3]; 1 mM 4OHT for 72 hrs
  DsRed fluorescence in the nuclear fraction: 3,200.9+/−156.95 au
[3]
  localization of Atoh1-ER-DsRed to the nucleus: dose-dependent manner
  time to complete cytoplasmic localization of the fusion protein after removal from the culture media: ≤ 2 weeks
Myosin 7a; HEI OC1 cells transfected with Atoh1-ER-DsRed, differentiating conditions (39° C.), 1 mM 4OHT for three days, p<0.001 vs vehicle
  myosin 7a labeling: 79%
Atoh1 mRNA
  Atoh1 mRNA expression: upregulates the expression of Atoh1 in a dose-dependent manner; also recorded: increase in Atoh1 mRNA expression
